Measurements published in patent US11072609B2, “Method for preparing halogenated imidazopyridine derivatives” (Bayer Aktiengesellschaft, priority 2017, dated 2021).

Legend:
[1] = test system: Myzus persicae; test: Myzus persicae - oral test; assay type: in vivo; details: application rate 4 ppm; after 5 days; 100% = all aphids killed
Method: Myzus persicae—Oral Test Solvent: 100 parts by weight of acetone To produce a suitable active ingredient formulation, 1 part by weight of active ingredient is dissolved with the stated parts by weight of solvent and made up to the desired concentration with water. 50 μl of the active ingredient formulation are transferred into microtitre plates and made up to a final volume of 200 μl with 150 μl of IPL41 insect medium (33%+15% sugar). Subsequently, the plates are sealed with parafilm, which a mixed population of green peach aphids (Myzus persicae) within a second microtitre plate is able to puncture and imbibe the solution. After 5 days, the efficacy in % is determined. 100% means that all the aphids have been killed; 0% means that no aphids have been killed.

[2] = test system: Phaedon cochleariae; test: Phaedon cochleariae - spray test; assay type: in vivo; details: application rate 100 g/ha; Chinese cabbage leaf discs, larvae; after 7 days
Method: Phaedon cochleariae—Spray Test
To produce a suitable active ingredient formulation, 1 part by weight of active ingredient is dissolved with the specified parts by weight of solvent and made up to the desired concentration with water containing an emulsifier concentration of 1000 ppm. To produce further test concentrations, the formulation is diluted with emulsifier-containing water.
Discs of Chinese cabbage leaves (Brassica pekinensis) are sprayed with an active ingredient formularation of the desired concentration and, after drying, populated with larvae of the mustard beetle (Phaedon cochleariae).
After 7 days, the efficacy in % is determined. 100% means that all the beetle larvae have been killed; 0% means that no beetle larvae have been killed.

[3] = log P by HPLC on reversed-phase column (C 18), EEC Directive 79/831 Annex V.A8; assay type: physicochemical; details: reversed-phase C18 HPLC column; HPLC-MS, reversed-phase C 18, 55° C.; acidic or neutral range not stated
Method: The log P values are measured according to EEC Directive 79/831 Annex V.A8 by HPLC (high-performance liquid chromatography) on a reversed-phase column (C 18). Temperature: 55° C. The LC-MS determination in the acidic range is carried out at pH 2.7 using the mobile phases 0.1% aqueous formic acid and acetonitrile (contains 0.1% formic acid); linear gradient from 10% acetonitrile to 95% acetonitrile. The LC-MS determination in the neutral range is carried out at pH 7.8 using the mobile phases 0.001 molar aqueous ammonium bicarbonate solution and acetonitrile; linear gradient from 10% acetonitrile to 95% acetonitrile. Calibration is carried out using unbranched alkan-2-ones (having 3 to 16 carbon atoms) with known log P values (log P values determined on the basis of the retention times by linear interpolation between two successive alkanones).

[4] = test system: Myzus persicae; test: Myzus persicae - spray test; assay type: in vivo; details: Chinese cabbage leaf discs, after 5 days
Method: Myzus persicae—Spray Test [table] To produce a suitable active ingredient formulation, 1 part by weight of active ingredient is dissolved with the specified parts by weight of solvent and made up to the desired concentration with water containing an emulsifier concentration of 1000 ppm. To produce further test concentrations, the formulation is diluted with emulsifier-containing water. Discs of Chinese cabbage leaves (Brassica pekinensis) infested by all stages of the green peach aphid (Myzus persicae) are sprayed with an active ingredient formulation of the desired concentration. After 5 days, the efficacy in % is determined. 100% means that all the aphids have been killed; 0% means that no aphids have been killed.

[5] = test system: Spodoptera frugiperda; test: Spodoptera frugiverda - spray test; assay type: in vivo; details: application rate 100 g/ha; maize leaf discs, caterpillars; after 7 days
Method: Spodoptera frugiverda—Spray Test [table] To produce a suitable active ingredient formulation, 1 part by weight of active ingredient is dissolved with the specified parts by weight of solvent and made up to the desired concentration with water containing an emulsifier concentration of 1000 ppm. To produce further test concentrations, the formulation is diluted with emulsifier-containing water. Leaf discs of maize (Zea mays) are sprayed with an active ingredient formulation of the desired concentration and, after drying, populated with caterpillars of the armyworm (Spodoptera frugiperda). After 7 days, the efficacy in % is determined. 100% means that all the caterpillars have been killed; 0% means that no caterpillar has been killed.

SMILES	efficacy [1]	chromatographic logP [3]	further results
CCS(=O)(=O)c1ccc(-n2cncn2)nc1-c1nc2cc(C(F)(F)F)nc(C#N)c2n1C [Compound No. 1, 2-[3-(ethylsulfonyl)-6-(1H-1,2,4-triazol-1-yl)pyridin-2-yl]-3-methyl-6-(trifluoromethyl)-3H-imidazo[4,5-c]pyridine-4-carbonitrile]	100%	–	efficacy [2]: 83%
CCSc1ccc(Cl)nc1-c1nc2cc(C(F)(F)F)nc(I)c2n1C [Example 1, 2-[6-chloro-3-(ethylsulfanyl)pyridin-2-yl]-4-iodo-3-methyl-6-(trifluoromethyl)-3H-imidazo[4,5-c]pyridine]	–	4.17	–
CCSc1ccc(Br)nc1-c1nc2cc(C(F)(F)F)nc(I)c2n1C [Example 2, 2-[6-bromo-3-(ethylsulfanyl)pyridin-2-yl]-4-iodo-3-methyl-6-(trifluoromethyl)-3H-imidazo[4,5-c]pyridine]	–	4.34	–
CCSc1ccc(Cl)nc1-c1nc2cc(C(F)(F)F)nc(C)c2n1C [Example 3, 2-[6-chloro-3-(ethylsulfanyl)pyridin-2-yl]-3,4-dimethyl-6-(trifluoromethyl)-3H-imidazo[4,5-c]pyridine]	–	3.23	–
CCSc1ccc(Br)nc1-c1nc2cc(C(F)(F)F)nc(C)c2n1C [Example 4, 2-[6-bromo-3-(ethylsulfanyl)pyridin-2-yl]-3,4-dimethyl-6-(trifluoromethyl)-3H-imidazo[4,5-c]pyridine]	–	3.36	–
CCSc1ccc(Cl)nc1-c1nc2cc(C(F)(F)F)nc(C#N)c2n1C [Example 5, 2-[6-chloro-3-(ethylsulfanyl)pyridin-2-yl]-3-methyl-6-(trifluoromethyl)-3H-imidazo[4,5-c]pyridine-4-carbonitrile]	–	3.84	–
CCSc1ccc(Br)nc1-c1nc2cc(C(F)(F)F)nc(C#N)c2n1C [Example 6, 2-[6-bromo-3-(ethylsulfanyl)pyridin-2-yl]-3-methyl-6-(trifluoromethyl)-3H-imidazo[4,5-c]pyridine-4-carbonitrile]	–	3.87	–
CCSc1ccc(Br)nc1-c1nc2cc(C(F)(F)F)nc(Cl)c2n1C [Example 7, 2-[6-bromo-3-(ethylsulfanyl)pyridin-2-yl]-4-chloro-3-methyl-6-(trifluoromethyl)-3H-imidazo[4,5-c]pyridine]	–	4.18	–
CCS(=O)(=O)c1ccc(-n2cncn2)nc1-c1nc2cc(C(F)(F)F)nc(C)c2n1C [compound 2]	100%	–	efficacy [2]: 83%; efficacy ([4]; application rate 20 g/ha): 90%
CCS(=O)(=O)c1ccc(-n2cncn2)nc1-c1nc2cc(C(F)(F)F)nc(Cl)c2n1C [compound 3]	100%	–	efficacy [5]: 100%; efficacy ([4]; application rate 20 g/ha): 100%; efficacy ([4]; application rate 100 g/ha): 100%
